Test results: patent US10406207B2, “Peptide conjugates of GLP-1 receptor agonists and gastrin and their use” (priority 2010, dated 2019)
Where two headings read alike, the source gives them in different places. Ends that are not written are not given here.

How the values were obtained:
Type in all cases: cell-based
[1] = target: T1, human CCK-B R (Homo sapiens, UniProt P32239); experiment: Human CCK-B receptor efficacy assay (AlphaScreen SureFire p-ERK); settings: read-out: hCCK-B R EC50
T1 construct: expressed in transfected cells
T1 sequence (P32239 1-447): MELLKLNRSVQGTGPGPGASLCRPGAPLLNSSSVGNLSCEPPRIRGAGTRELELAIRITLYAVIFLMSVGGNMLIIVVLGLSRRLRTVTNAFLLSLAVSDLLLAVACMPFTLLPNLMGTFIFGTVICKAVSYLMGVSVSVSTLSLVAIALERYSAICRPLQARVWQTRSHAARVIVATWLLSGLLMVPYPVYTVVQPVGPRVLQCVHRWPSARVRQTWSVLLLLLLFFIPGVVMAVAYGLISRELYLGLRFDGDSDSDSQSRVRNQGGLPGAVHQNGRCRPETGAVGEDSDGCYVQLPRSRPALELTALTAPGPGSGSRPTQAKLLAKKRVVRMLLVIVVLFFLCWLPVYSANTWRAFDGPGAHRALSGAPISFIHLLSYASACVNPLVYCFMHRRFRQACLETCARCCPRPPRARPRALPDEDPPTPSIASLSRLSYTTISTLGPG

[2] = target: T2, mouse CCK-B R (Mus musculus, UniProt P56481); experiment: Mouse CCK-B receptor efficacy assay (AlphaScreen SureFire p-ERK)
T2 construct: expressed in transfected cells
T2 sequence (P56481 1-453): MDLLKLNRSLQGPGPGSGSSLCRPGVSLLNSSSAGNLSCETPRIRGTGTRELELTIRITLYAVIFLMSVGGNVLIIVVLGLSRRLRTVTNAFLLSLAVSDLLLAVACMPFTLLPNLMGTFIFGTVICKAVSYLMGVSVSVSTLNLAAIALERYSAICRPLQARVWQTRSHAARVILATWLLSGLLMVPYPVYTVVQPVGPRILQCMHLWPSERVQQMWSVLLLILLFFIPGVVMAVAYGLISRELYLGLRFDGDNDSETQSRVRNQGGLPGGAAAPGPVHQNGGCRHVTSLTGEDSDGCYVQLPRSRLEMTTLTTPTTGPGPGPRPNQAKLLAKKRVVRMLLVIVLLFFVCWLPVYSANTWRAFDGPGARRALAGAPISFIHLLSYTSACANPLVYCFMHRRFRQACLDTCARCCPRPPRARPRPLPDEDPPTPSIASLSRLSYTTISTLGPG
Description: CCK-B Receptor (CCK-B R) Efficacy Assay:
To test binding and activation of CCK-B R we produced stable cell lines expressing one of the human or mouse CCK receptors in a manner similar to that for production of the hGLP-1 R cell lines were generated (vide supra). In brief, we used HEK293 cells for transfection of the cDNA for human or mouse CCK-A R or CCK-B R [hCCK-A R (gene identity: L19315), hCCK-B R (NM_176875), mCCK-A R (NM_009827) and mCCK-B R (NM_007627)] all cloned into the transfection plasmid pIRESneo2dNGFR. The cells were grown according to standard protocol in growth medium and transfected with the plasmids using Lipofectamin (Invitrogen). The cells stably expressing CCK receptors were selected using G418 in the growth medium (only cells that have taken up and incorporated the cDNA expression plasmid survive) and propagated. Stocks of cells were frozen for later use.
In vitro effects of peptide conjugates of the invention were estimated by measuring p-ERK (using the AlphaScreen™ SureFire p-ERK assay) in HEK293 cells stably expressing the human and mouse CCK-B R (high-affinity Gastrin receptor), respectively. The Gastrin receptor efficacy assays (AlphaScreen™ SureFire p-ERK assay) were performed as follows:
The CCK-B R expressing cells in question were seeded at 20,000 cells/well in 100 μl growth medium [DMEM, 10% FCS, Penicillin (100 IU/ml), Streptomycin (100 μg/ml)] in a 96-well plate coated with poly-D-lysine. The cells were incubated in an incubator (37° C., 5% […]) for two days.
The growth medium was changed to 80 μl of serum-free medium [DMEM, Penicillin (100 IU/ml), Streptomycin (100 μg/ml)] per well, and incubation of the cells was continued for 19 hours in the incubator (37° C., 5% CO2).
• 1. After 19 hours, 20 μl of serum-free medium containing one of 5 different concentrations of peptide conjugate was added (performed in triplicate for each concentration), and the cells were incubated for 5 min. at room temperature. • 2. The stimulation medium was discarded by quickly turning the plate upside down, and 60 μl 1× lysis buffer (from the SureFire assay kit) was added per well. • 3. The plate was shaken on a plate-shaker for 5 min and then placed on ice. • 4. SureFire P-ERK assay: 4 μl of each supernatant was transferred to a 384 well proxiplate (Perkin Elmer). • 5. 4 μl of each of the two control lysates (unstimulated and stimulated) were added to the proxiplate in duplicate. • 6. […] 7 μl of the latter reaction buffer+activation buffer+beads per well were added in the proxiplate, the mix being resuspended carefully before addition to the wells. • 7. The plate was incubated for 2 hours in a dark box in a 22° C. incubator. • 8. The plate was analyzed on an Envision™ light-emission plate reader (Perkin-Elmer) using the appropriate reading program (Perkin-Elmer).

[3] = target: T3, human GLP-1 R (Homo sapiens, UniProt P43220); experiment: Human GLP-1 receptor efficacy assay (cAMP induction, FlashPlate); settings: read-out: hGLP-1 R EC50
T3 construct: expressed in transfected cells
T3 sequence (P43220 24-463): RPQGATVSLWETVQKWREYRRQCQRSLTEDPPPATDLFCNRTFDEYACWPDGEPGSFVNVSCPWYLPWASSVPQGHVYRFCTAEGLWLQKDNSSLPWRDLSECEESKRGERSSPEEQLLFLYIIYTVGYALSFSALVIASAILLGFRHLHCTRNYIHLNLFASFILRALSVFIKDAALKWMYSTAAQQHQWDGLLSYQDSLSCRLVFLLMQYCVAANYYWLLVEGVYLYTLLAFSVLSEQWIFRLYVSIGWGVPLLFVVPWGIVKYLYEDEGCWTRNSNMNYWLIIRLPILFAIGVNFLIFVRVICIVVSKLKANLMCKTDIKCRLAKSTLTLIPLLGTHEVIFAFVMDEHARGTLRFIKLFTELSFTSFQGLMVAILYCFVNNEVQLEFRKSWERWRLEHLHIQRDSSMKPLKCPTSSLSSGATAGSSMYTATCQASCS
Method: On the day of analysis, growth medium was removed and the cells were washed once with 200 μl Tyrode buffer [Tyrode's Salts (9.6 g/l), 10 mM HEPES, pH 7.4]. […] The reaction was stopped by addition of 25 μl 0.5 M HCl and incubated on ice for 60 min.

[4] = Table 1, HEK293 cells expressing human CCK-B R, p-ERK
[5] = Table 1, HEK293 cells expressing mouse CCK-B R, p-ERK, read-out: mCCK-B R EC50

| EC50 [1, 4] [nM] | EC50 [2, 5] [nM] | EC50 ([1]; Table 2) [nM] | EC50 ([3]; Table 2) [nM] | Compound | other results |
| --- | --- | --- | --- | --- | --- |
| 8.76 | 51.1 | – | – | CC[C@H](C)[C@H](NC(=O)[C@H](Cc1ccccc1)NC(=O)[C@H](CCC(=O)O)NC(=O)[C@H](CCCCN)NC(=O)[C@H](C)NC(=O)[C@H](C)NC(=O)[C@H](CCC(N)=O)NC(=O)CNC(=O)[C@H](CCC(=O)O)NC(=O)[C@H](CC(C)C)NC(=O)[C@H](Cc1ccc(O)cc1)NC(=O)[C@H](CO)NC(=O)[C@H](CO)NC(=O)[C@@H](NC(=O)[C@H](CC(=O)O)NC(=O)[C@H](CO)NC(=O)[C@@H](NC(=O)[C@H](Cc1ccccc1)NC(=O)[C@@H](NC(=O)CNC(=O)[C@H](CCC(=O)O)NC(=O)[C@H](C)NC(=O)[C@@H](N)Cc1c[nH]cn1)[C@@H](C)O)[C@@H](C)O)C(C)C)C(=O)N[C@@H](C)C(=O)N[C@@H](Cc1c[nH]c2ccccc12)C(=O)N[C@@H](CC(C)C)C(=O)N[C@H](C(=O)N[C@@H](CCCCN)C(=O)NCC(=O)N[C@@H](CCCNC(=N)N)C(=O)NCCOCCOCC(=O)N[C@@H](CO)C(=O)N[C@@H](CCCCN)C(=O)N[C@@H](CCCCN)C(=O)N[C@@H](CCC(N)=O)C(=O)NCC(=O)N1CCC[C@H]1C(=O)N[C@@H](Cc1c[nH]c2ccccc12)C(=O)N[C@@H](CC(C)C)C(=O)N[C@@H](CCC(=O)O)C(=O)N[C@@H](CCC(=O)O)C(=O)N[C@@H](CCC(=O)O)C(=O)N[C@@H](CCC(=O)O)C(=O)N[C@@H](CCC(=O)O)C(=O)N[C@@H](C)C(=O)N[C@@H](Cc1ccc(O)cc1)C(=O)NCC(=O)N[C@@H](Cc1c[nH]c2ccccc12)C(=O)N[C@@H](CC(C)C)C(=O)N[C@@H](CC(=O)O)C(=O)N[C@@H](Cc1ccccc1)C(N)=O)C(C)C [Compound 41, GLP-1(7-36)-Peg3-SKK-[Gln1,Leu15]Gastrin17] | – |
| 8.2 | 58.3 | – | – | CC[C@H](C)[C@H](NC(=O)[C@H](Cc1ccccc1)NC(=O)[C@H](CCC(=O)O)NC(=O)[C@H](CCCCN)NC(=O)[C@H](C)NC(=O)[C@H](C)NC(=O)[C@H](CCC(N)=O)NC(=O)CNC(=O)[C@H](CCC(=O)O)NC(=O)[C@H](CC(C)C)NC(=O)[C@H](Cc1ccc(O)cc1)NC(=O)[C@H](CO)NC(=O)[C@H](CO)NC(=O)[C@@H](NC(=O)[C@H](CC(=O)O)NC(=O)[C@H](CO)NC(=O)[C@@H](NC(=O)[C@H](Cc1ccccc1)NC(=O)[C@@H](NC(=O)CNC(=O)[C@H](CCC(=O)O)NC(=O)[C@H](C)NC(=O)[C@@H](N)Cc1c[nH]cn1)[C@@H](C)O)[C@@H](C)O)C(C)C)C(=O)N[C@@H](C)C(=O)N[C@@H](Cc1c[nH]c2ccccc12)C(=O)N[C@@H](CC(C)C)C(=O)N[C@H](C(=O)N[C@@H](CCCCN)C(=O)NCC(=O)N[C@@H](CCCNC(=N)N)C(=O)NCCOCCOCC(=O)NCCOCCOCC(=O)N[C@@H](CCC(N)=O)C(=O)NCC(=O)N1CCC[C@H]1C(=O)N[C@@H](Cc1c[nH]c2ccccc12)C(=O)N[C@@H](CC(C)C)C(=O)N[C@@H](CCC(=O)O)C(=O)N[C@@H](CCC(=O)O)C(=O)N[C@@H](CCC(=O)O)C(=O)N[C@@H](CCC(=O)O)C(=O)N[C@@H](CCC(=O)O)C(=O)N[C@@H](C)C(=O)N[C@@H](Cc1ccc(O)cc1)C(=O)NCC(=O)N[C@@H](Cc1c[nH]c2ccccc12)C(=O)N[C@@H](CC(C)C)C(=O)N[C@@H](CC(=O)O)C(=O)N[C@@H](Cc1ccccc1)C(N)=O)C(C)C [Compound 42, GLP-1(7-36)-Peg3-Peg3-[Gln1,Leu15]Gastrin17] | – |
| – | – | – | – | CC[C@H](C)[C@H](NC(=O)[C@H](Cc1ccccc1)NC(=O)[C@H](CCC(=O)O)NC(=O)[C@H](CCCCN)NC(=O)[C@H](C)NC(=O)[C@H](C)NC(=O)[C@H](CCC(N)=O)NC(=O)CNC(=O)[C@H](CCC(=O)O)NC(=O)[C@H](CC(C)C)NC(=O)[C@H](Cc1ccc(O)cc1)NC(=O)[C@H](CO)NC(=O)[C@H](CO)NC(=O)[C@@H](NC(=O)[C@H](CC(=O)O)NC(=O)[C@H](CO)NC(=O)[C@@H](NC(=O)[C@H](Cc1ccccc1)NC(=O)[C@@H](NC(=O)CNC(=O)[C@H](CCC(=O)O)NC(=O)C(C)(C)NC(=O)[C@@H](N)Cc1c[nH]cn1)[C@@H](C)O)[C@@H](C)O)C(C)C)C(=O)N[C@@H](C)C(=O)N[C@@H](Cc1c[nH]c2ccccc12)C(=O)N[C@@H](CC(C)C)C(=O)N[C@H](C(=O)N[C@@H](CCCNC(=N)N)C(=O)NCC(=O)N[C@@H](CCCNC(=N)N)C(=O)NCC(=O)NCCOCCOCC(=O)NCCOCCOCC(=O)N[C@@H](Cc1ccc(O)cc1)C(=O)NCC(=O)N[C@@H](Cc1c[nH]c2ccccc12)C(=O)N[C@@H](CC(C)C)C(=O)N[C@@H](CC(=O)O)C(=O)N[C@@H](Cc1ccccc1)C(N)=O)C(C)C [Compound 112, [Aib8,Arg34]GLP-1(7-37)-Peg3-Peg3-[Leu4]Gastrin6] | EC50 ([1]; Table 3): 42 nM; EC50 ([3]; Table 3): 0.043 nM |
| – | – | 211 | 1.2 | H-HGEGTFTSELSKYLEEEAVRLFIEFLKWLDF-NH2 [Compound 96, [Glu9,Leu14,Phe25,Tyr13]Exendin-4(1-27)-[Leu2]Gastrin4] | – |
| – | – | 30 | 0.11 | H-HGEGTFTSELSKYLEEEAVRLFIEFLKYGWLDF-NH2 [Compound 101, [Glu9,Leu14,Phe25,Tyr13]Exendin-4(1-27)-[Leu4]Gastrin6] | – |
| – | – | – | – | QGPWLEEEEEAYGWLDF-NH2 [h[Gln1,Leu15]Gastrin17, reference compound] | EC50 [2]: 18.2 nM |
